Measured values taken from patent US20100240887A1, “New methods of producing HHT” (priority 2009, published 2010).
Read-outs that look alike come from different tables or passages of the source.

Columns and labels:
[1] = system: Malignant melanoma of the pigmented layers of eyes; experiment: Inhibition of tumor cell proliferation, malignant melanoma of eyes; format: cell-based; settings: 1 μg/ml, 72 hours
Experimental: (§1) Human tumor cell lines: Hela leukemia HL-60, malignant melanocarcinoma B16, oral epidermoid carcinoma (KB), lung carcinoma (A549), breast carcinoma MCF-7, adenocarcinoma of stomach.
(§2) Animal tumor cell lines: Walker carcinoma, LLC-WRC-256, malignant melanoma (RMMI 1846), 3T3, and S-180 sarcoma (CCRF-180). All lines were routinely cultured in the RPMI1640 medium supplemented 20% fetal calf serum. The experiment was carried out in 96 microplate, each well had 5×10^5 cells and given desired concentration of 1 μg/ml (1×10^−6 g/ml) drug. Then the plate was incubated at […] in an atmosphere of humidified air enriched with 5 percent carbon dioxide for 72 hours.
(§3) Inhibition percent rate of tumor cell proliferation was obtained according to the bellow formula.

tyrosine kinase (TK) = experiment: Tyrosine kinase (TK) assay in HL-60 leukemia cells; format: cell-based, human; settings: for % of control activity (TK): Table 8, concentration not given
Experimental: Tyrosine kinase (TK) Assay: TK was measured by a modification of the method of Braun et al. Briefly, H-60 leukemia cells were plated at a density of 5×10^5 cells in […], and divided control and treatments groups for incubation 24 hours at 37° C. with 5% CO2. The cells were collected by scraping, washed twice with phosphate-buffered saline, and resuspended at density of 10^6 cells/ml in 5 mM HEPEs buffer (pH 7.4). The cells were then resuspended in 1 ml of buffer containing 5 mM HEPES (pH 7.6), 1 mM MgCl2 and 1 mM EDTA, then placed on ice bath. The cell membrane was disrupted by ultra sound and centrifuged at 1,000×g for 10 minutes. The supernatant was ultra centrifuged at 30,000×g for 30 minutes at 4° C. The pellet was resuspended in 0.3 ml of buffer containing 25 mM HEOES, centrifuged at 12,000×g for 5 minutes. The resulting supernatant was used for TK assay. Content of protein was determined. 10 μg of protein placed in 20 mM HEPES (pH 7.6), 15 mM MgCl2, 10 mM ZnCl2 and 5% (v/v) nonidet P-40, with or without substrate [glutamic acid (GT), mg/ml]. After 5 minutes incubation at 25° C., the reaction was initiated by the addition of 25 μM [γ^32P] ATP (3 ci/mmol). After 10 minutes, the reaction was stopped by the addition of 20 mM cold ATP. 50 μl of the mixtures were spotted on glass microfiber filter discs and washed three times with cold trichloroacetic acid (TCA), contained 10 mM sodium pyrophosphate. Air dried. Radioactivity was determined by liquid scintillation spectrometry. The net TK activity was determined after correcting for endogenous TK activity.

LD50 in mice = format: in vivo; settings: mouse, in vivo, intraperitoneal; injection in abdominal cavity in mice
Excerpt: (§4) • 1. […] LD50 of HHT is much higher than majority anticancer drugs. The toxicology data of HHT mean that HHT is safe drug for treatment of cancer cells.

dogs [2] = settings: dog, in vivo
Experimental: (§8) Forty dogs were used. Body weight, food consumption, general observations, laboratory tests, and postmortem examinations were determined.
(§9) Twenty normal adult dogs had weight approximately 10 kg±1 kg used in experiments. Toxic doses for dogs: 0.15 mg/kg/days×7 and 0.30 mg/kg/days×7 of HHT was injected as the toxic doses.
(§10) For HHT treatment group, at least eight dogs that died early in the observation period and eight dogs that died late were examined.

dogs [3] = experiment: Short-term toxicity in dogs
Experimental: as §8, §9, §10

HL-60 cells = experiment: Cellular diversion of human leukemic cells (NBT); format: cell-based; settings: human leukemic cells (HL-60); index of normal cells
gastric cancer cells = experiment: Cellular diversion of gastric cancer cells (NBT); format: cell-based
Normal cells = experiment: Apoptosis of normal cells; format: cell-based; settings: 50 ng/ml (Table 4)
Experimental: (§5) Cells ([…] were incubated in 10 ml IMDM plus […] heat-inactivated fetal calf serum. Samples were incubated for 24 hours with various concentrations of drugs. Control samples received the same amount of media, without drug addition. After 24 hours of incubation the samples were pelleted and fixed in ethanol […] for 15 minutes at 4° C.; after three washes in PBS, the cells were treated with RNase I 0.5 mg/ml for 15 minutes at 37° C. The cells were harvested by centrifugation and resuspended in 50 μg/ml propidium iodide in PBS. Analysis (upon acquisition of 10,000-20,000 events) was performed on a FACscan flow cytometer with the FL2 detector in logarithmic mode, using Lysis II software (Becton Dickinson). […]
(§6) For evaluation of apoptosis by flow cytometry, cells were fixed and permeabilized in 1% paraformaldehyde and ice-cold 70% ethanol. […] Green (apoptotic cells) and orange (total DNA) fluorescence were measured with a FACScan flow cytometer and analyzed with LYSIS II and CELLFIT programs. Data were analyzed by Student's t-test. […]
(§7) Untreated and treated HL-60 cells collected by centrifugation, washed in phosphate buffered saline and re-suspended at a concentration of 5×10^6 cells and 0.1% RNase A. The mixture was incubated at 37° C. for 30 min and then incubated for an additional 30 min at 37° C. […] DNA was precipitated with 0.5 N perchloric acid and quantitated using diphenylamine reagent. […]

Malignant melanoma cells = experiment: Apoptosis of malignant melanoma cells; format: cell-based; settings: 50 ng/ml
Experimental: as §5, §6, §7

Leukemic cells = experiment: Inhibition of tumor cell proliferation, leukemic cells; format: cell-based, human; settings: 1 μg/ml, 72 hours
Experimental: as §1, §2, §3

L615 transplanted tumor = experiment: Growth of transplanted tumor in mice; format: in vivo; settings: intraperitoneally, 20 mg/kg, sacrificed on the 12th day
Experimental: Male mice, weight 20-22 g, were used in the experiment. 1×10^7 tumor cells were injected to mouse and other drugs injected intraperitoneally began second day. All mice were sacrificed on the 12th day, isolated the tumor and weighed and calculated the inhibition rate of tumor weight.
The effect of HHT on the growth of animal transplanted tumor as illustrated by the Table 6.20 mg/kg of other drugs could inhibit the growth of L615 transplanted tumor.

[4] = system: NNK-induced pulmonary adenomas; experiment: NNK-induced lung tumorigenesis; format: in vivo; settings: mice, 20 mg/kg daily by injection, NNK 10 μmol i.p., sixteen weeks
Experimental: Every group had 20 mice. […] For control group, each mouse was gave same volume of physiological saline. Three days later, mice were gave 10 μmol NNK (in 0.1 ml saline) by i.p. injection. Sixteen weeks after these treatments the mice were killed and pulmonary adenomas were counted. The statistical significance of bioassay data was determined by student's test.

mice = experiment: LD50 in mice; format: in vivo; settings: injection in abdominal cavity in mice
Excerpt: as §4

SMILES	NBT (%) (HL-60 cells)	Apoptosis (%) (Normal cells)	Apoptosis (%) (Malignant melanoma cells)	Inhibition (%) (Leukemic cells)	Inhibition (%) [1] [%]	Inhibition (%) of transplanted tumor (tumor weight) (L615 transplanted tumor) [%]	% of control activity (TK) (tyrosine kinase (TK)) [%]	Tumor incidence (%) [4] [%]	LD50 (mice) [mg/kg]	further results
COC(=O)C[C@](O)(CCCC(C)(C)O)C(=O)O[C@@H]1C(OC)=C[C@]23CCCN2CCc2cc4c(cc2[C@H]13)OCO4 [HHT, Homoharringtonine]										inhibition at 1 µg/mL [1]: 80 ± 9.2%; inhibition of TK activity (tyrosine kinase (TK); 10^−6 M): 99.9%; LD50 (LD50 in mice): 4.07 mg/kg; delayed toxicity (dogs [2]): No significant delayed toxicity; major target organs involved in toxicity (dogs [2]): G.I. tract, heart and hematopoietic organs; Heart rate (dogs [2]; 0.1 mg/kg/day): 205 beat/min; Leukocyte count (dogs [2]; 0.1 mg/kg/day): 3.90 ×10^3/mm^3; Heart rate (dogs [2]; 0.2 mg/kg/day): 230 beat/min; Leukocyte count (dogs [2]; 0.2 mg/kg/day): 3.58 ×10^3/mm^3; Heart rate (dogs [2]; 0.3 mg/kg/day): 259 beat/min; Leukocyte count (dogs [2]; 0.3 mg/kg/day): 3.20 ×10^3/mm^3; Heart rate (dogs [3]; 0.1 mg/kg/d × 7, ♀): 208 beat/min; Leukocyte count (dogs [3]; 0.1 mg/kg/d × 7, ♀): 3.91 ×10^3/mm^3; Heart rate (dogs [3]; 0.2 mg/kg/d × 7, ♀): 232 beat/min; Leukocyte count (dogs [3]; 0.2 mg/kg/d × 7, ♀): 3.65 ×10^3/mm^3; Heart rate (dogs [3]; 0.3 mg/kg/d × 7, ♀): 260 beat/min; Leukocyte count (dogs [3]; 0.3 mg/kg/d × 7, ♀): 3.25 ×10^3/mm^3
COC(=O)C[C@](O)(CCCC(C)(C)O)C(=O)O[C@@H]1C(OC)=C[C@]23CCCN2CCc2cc4c(cc2[C@H]13)OCO4 [C-HHT]	64 ± 8.0	19.2 ± 2.5	43.8 ± 4.2	74.1 ± 10.8	83.1 ± 9.8	67.8 ± 6.0	20.0 ± 5.0	21.7 ± 4.8	4.0	NBT (%) (gastric cancer cells): 57 ± 8.9 %
COC(=O)C[C@](O)(CCCC(C)(C)O)C(=O)O[C@@H]1C(OC)=C[C@]23CCCN2CCc2cc4c(cc2[C@H]13)OCO4 [S-HHT]	63 ± 7.8	18.0 ± 2.0	43.0 ± 6.0	72.5 ± 11.6	82.5 ± 10.2	69.2 ± 7.0	20.8 ± 4.8	26.5 ± 4.9	4.20	
